Experiments:
[1] = molecular target: T1, 5-hydroxytryptamine 1A (5-HT1A) receptors (Homo sapiens (Human), UniProt P08908); assay: 5-HT1A receptor β-arrestin2 BRET (recruitment); assay type: cell-based; conditions: for Emax: relative to endogenous ligand 5-hydroxytryptamine
Procedure: At the same time, in order to examine the downstream β-arrestin2 signaling pathway mediated by 5-HT1A receptors, on the first day, a 6 cm culture dish was used for transfection with 500 ng of 5-HT1A receptors containing C-terminal seaweed luciferase (5HT1AR-Rluc), 500 ng of G protein-coupled receptor kinase 2 (GRK2), 2500 ng of β-arrestin2 containing N-terminal green fluorescent protein (GFP2-ARRB2), and 14 μL of PEI. The next day, the confluent cells of a 6 cm culture dish were digested and reseeded into a 96-well plate with 100 μL of culture medium added to each well. On the third day, the drugs were added for test. The 96-well plate was taken out from the cell incubator to decant the culture medium, 40 µL of the substrate coelenterazine 400a (final concentration of 5 μM) was added to each well, and then 20 μL of different drugs were added sequentially from left to right to ensure that the final concentration of the drug decreased gradually from bottom to top, with two replicates per treatment. Finally, the prepared samples were loaded on machine for test. The machine readout value reflected the recruitment of β-arrestin2 to the membrane or the dissociation of G protein trimer. The former indicated the degree of activation of the β-arrestin2 signaling pathway downstream of the 5-HT1 serotonin 1A receptors, and the latter indicated the degree of activation of the G protein signaling pathway downstream of the serotonin 1A receptors.

[2] = system: MK801-induced hyperlocomotion in mice; assay: Open field test, MK801-induced hyperlocomotion (schizophrenia-like model); assay type: in vivo, C57B6 male mice
Procedure: Experimental method: The experimental animals were C57B6 male mice, n=8 in each group. In this model, C57B6 mice were used as experimental animals. Hyperlocomotion of the mice in open field was induced by acute injection of a NMDA antagonist MK801, and modeled to test the inhibitory effect of different compounds on hyperlocomotion phenotype induced by MK801 All mouse behavior experiments were carried out during the light period. The whole process was recorded by the camera, and locomotive data were tracked and analyzed by behavioral tracking software. The compounds were administered intraperitoneally. Immediately after the injection, the mice entered the open field and their movement trajectories were recorded by the camera. After 30 minutes, the mice received 0.2 mg/kg of MK801 by intraperitoneal injection and returned to the open field immediately after administration, and the movement trajectories were further recorded for 120 minutes. The accumulative travelled distance of the mice was counted in a 5-minute bin. Data statistics were performed using Student-t-test analysis, *p<0.05, **p<0.01, ***p<0.001, ****p<0.0001. The total travelled distance of the mice in the 0-45 minute interval after administration of the compounds of the present disclosure at different doses in combination with MK801 (0.2 mg/kg) is shown in Table 10.

5-HT2A receptors = 5-HT2A receptors (Homo sapiens (Human), UniProt P28223); assay: 5-HT2A receptor radioligand competition binding assay ([3H]-ketanserin); conditions: for Ki: read-out: Ki
5-HT2A receptors, sequence (P28223 whole entry): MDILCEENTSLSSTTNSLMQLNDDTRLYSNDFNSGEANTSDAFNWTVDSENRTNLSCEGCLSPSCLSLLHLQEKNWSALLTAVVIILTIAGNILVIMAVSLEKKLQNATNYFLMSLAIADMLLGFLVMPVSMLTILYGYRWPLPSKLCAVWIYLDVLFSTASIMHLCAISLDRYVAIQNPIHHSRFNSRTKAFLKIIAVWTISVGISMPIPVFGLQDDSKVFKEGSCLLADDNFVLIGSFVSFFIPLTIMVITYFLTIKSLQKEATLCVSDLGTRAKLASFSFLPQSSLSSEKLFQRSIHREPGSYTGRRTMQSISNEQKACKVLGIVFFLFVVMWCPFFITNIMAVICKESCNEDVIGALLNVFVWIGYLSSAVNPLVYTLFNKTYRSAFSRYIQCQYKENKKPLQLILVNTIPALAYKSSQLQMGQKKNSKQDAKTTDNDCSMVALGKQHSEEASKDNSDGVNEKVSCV
Procedure: The affinity of the compounds of the present disclosure for 5-HT2A receptors was determined by a radioligand competition binding assay. In the first step, a cell membrane component containing specific 5-HT2A receptor was prepared. A 10 cm dish was used for transfection with […] of 5-HT2A receptors and 40 μL of PEI. After 48 hours, the 10 cm dish was taken out from the cell incubator and the cultured cells had expressed the 5-HT2A receptors. A vacuum pump was used to suck off the culture medium, 3 mL of lysis buffer was added to each culture dish, and the cells were placed in a 4° C. cold room for 10 minutes. After the cells were detached, the cells were transferred to a 15 mL centrifuge tube and centrifuged at 1500 rpm for 5 minutes at 4° C., and the supernatant was discarded. The cell pellet was transferred to a tissue homogenizer, and 3 mL of lysis buffer was added and fully ground until the cells were broken. Then, cell suspension was equally aliquoted into several EP tubes, centrifuged at 12000 rpm for 5 minutes at 4° C., and the supernatant was discarded. The precipitate was the cell membrane component containing the 5-HT2A receptors. […] First, a standard binding buffer was added to the cell membrane component containing the 5-HT2A receptors, and the cell membrane was disrupted and resuspended with an electric tissue homogenizer. 30 μL of membrane protein suspension was added to each well of a 96-well plate. Then, 30 μL of different drugs were added to the 96-well plate sequentially from bottom to top to ensure that the final drug concentrations were 10^−5 M, 10^−6 M, 10^−7 M, 10^−8 M, 10^−9 M, and 0 M, with two replicates per treatment. Next, 30 μL of [^3H]-ketanserin was added to each well of the 96-well plate. The plate was incubated at room temperature in the dark for 2 hours. Detection was conducted. The machine readout value reflected the amount of [^3H]-ketanserin bound on the membrane, and after further data processing, the affinity Ki values of different compounds for the 5-HT2A receptors were obtained.

[3] = molecular target: T1, 5-hydroxytryptamine 1A (5-HT1A) receptors; assay: 5-HT1A receptor radioligand competition binding assay ([3H]-LSD); conditions: 293T membranes, read-out: Affinity Ki
Procedure: The affinity of the compounds of the present disclosure for 5-hydroxytryptamine 1A (5-HT1A) receptors was determined by a radioligand competition binding assay.
In the first step, a cell membrane component containing specific 5-HT1A receptors was prepared. […] A vacuum pump was used to suck off the culture medium, 3 mL of lysis buffer was added to each culture dish, and the cells were placed in a 4° C. cold room for 10 minutes. After the cells were detached, the cells were transferred to a 15 mL centrifuge tube and centrifuged at 1500 rpm for 5 minutes at 4° C., and the supernatant was discarded. The cell pellet was transferred to a tissue homogenizer, and 3 mL of lysis buffer was added and fully ground until the cells were broken. Then, cell suspension was equally aliquoted into several EP tubes, centrifuged at 12000 rpm for 5 minutes at 4° C., and the supernatant was discarded. The precipitate was the cell membrane component containing the 5-HT1A receptors.
First, a standard binding buffer was added to the cell membrane component containing the 5-HT1A receptors, and the cell membrane was disrupted and resuspended with an electric tissue homogenizer. 30 μL of membrane protein suspension was added to each well of a 96-well plate. Then, 30 μL of different drugs were added to the 96-well plate sequentially from bottom to top to ensure that the final drug concentrations were 10^−5 M, 10^−6 M, 10^−7 M, 10^−8 M, 10^−9 M, and 0 M, with two replicates per treatment. Next, 30 μL of [^3H]-LSD was added to each well of the 96-well plate. The plate was incubated at room temperature in the dark for 2 hours. Detection was conducted. The machine readout value reflected the amount of [^3H]-LSD bound on the membrane, and after further data processing, the binding affinity Ki values of different compounds for the 5-HT1A receptors were obtained.

dopamine D2 receptors [4] = molecular target: T2, dopamine D2 receptors (Homo sapiens (Human), UniProt P14416); assay: Dopamine D2 receptor β-arrestin2 BRET (recruitment); assay type: cell-based; conditions: for Emax: relative to endogenous ligand dopamine, read-out: β-arrestin2 BRET Emax % ± SEM; for EC50: unit printed only in Cariprazine cell, read-out: β-arrestin2 BRET EC50
T2 sequence (P14416 whole entry): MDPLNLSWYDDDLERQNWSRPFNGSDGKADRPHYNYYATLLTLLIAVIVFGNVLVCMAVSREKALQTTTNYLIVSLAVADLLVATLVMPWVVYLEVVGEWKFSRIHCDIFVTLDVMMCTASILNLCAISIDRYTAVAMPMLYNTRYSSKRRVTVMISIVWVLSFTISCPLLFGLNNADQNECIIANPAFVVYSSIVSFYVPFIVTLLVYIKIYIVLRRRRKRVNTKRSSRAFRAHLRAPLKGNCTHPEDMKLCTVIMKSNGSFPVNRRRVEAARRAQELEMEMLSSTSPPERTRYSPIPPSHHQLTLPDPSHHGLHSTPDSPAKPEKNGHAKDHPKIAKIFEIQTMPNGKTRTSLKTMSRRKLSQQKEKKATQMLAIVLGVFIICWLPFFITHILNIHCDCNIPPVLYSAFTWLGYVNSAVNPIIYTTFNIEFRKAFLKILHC
How it was run: (§1)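 G-protein assay: cells co-transfected with D2 receptor, Gαi1-Rluc, Gβ3 and Gγ9-GFP (1 μg each); β-arrestin2 assay: D2-Rluc, GRK2 and GFP2-β-arrestin2 co-transfected. Cells were reseeded after one day and tested on day three. Drug dilution series were added in duplicate with coelenterazine 400a (5 μM final), and the BRET signal was read.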

[5] = molecular target: T1, 5-hydroxytryptamine 1A (5-HT1A) receptors; assay: 5-HT1A receptor Gαi1 BRET (G protein trimer dissociation); assay type: cell-based; conditions: relative to endogenous ligand 5-hydroxytryptamine
dopamine D2 receptors [6] = molecular target: T2, dopamine D2 receptors; assay: Dopamine D2 receptor Gαi1 BRET (G protein trimer dissociation); assay type: cell-based; conditions: for Emax: relative to endogenous ligand dopamine, read-out: Gαi1 BRET Emax % ± SEM; for EC50: unit printed only in Cariprazine cell, read-out: Gαi1 BRET EC50
How it was run: as §1

dopamine D2 receptors [7] = molecular target: T2, dopamine D2 receptors; assay: Dopamine D2 receptor radioligand competition binding assay ([3H]-Methylspiperone); conditions: [3H]-Methylspiperone 0.3 to 0.5 nM, 293T membranes; read-out: Affinity Ki
How it was run: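 Membranes from cells transfected with human D2 receptor, PEI-mediated; competition with [3H]-methylspiperone for 2 h at room temperature in the dark.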

[8] = [3H]-ketanserin, 293T membranes

T1 sequence (P08908 whole entry): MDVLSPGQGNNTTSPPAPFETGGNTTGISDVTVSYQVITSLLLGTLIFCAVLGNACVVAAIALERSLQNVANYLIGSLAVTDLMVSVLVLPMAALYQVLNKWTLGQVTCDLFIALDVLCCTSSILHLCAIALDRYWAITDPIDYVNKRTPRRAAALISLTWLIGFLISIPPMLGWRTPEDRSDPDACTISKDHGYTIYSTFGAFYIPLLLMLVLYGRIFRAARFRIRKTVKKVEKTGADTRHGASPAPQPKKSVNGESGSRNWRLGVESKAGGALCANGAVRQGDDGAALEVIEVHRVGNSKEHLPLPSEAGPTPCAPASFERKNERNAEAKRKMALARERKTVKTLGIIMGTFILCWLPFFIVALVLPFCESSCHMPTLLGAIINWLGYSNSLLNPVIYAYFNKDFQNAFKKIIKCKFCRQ

Ki [3]	Emax (dopamine D2 receptors [4])	EC50 (dopamine D2 receptors [4])	Emax [5]	Emax [1]	Structure (SMILES)	further results
–	–	–	–	–	CN(C)C(=O)N[C@H]1CC[C@H](CCN2CCN(c3cccc(Cl)c3Cl)CC2)CC1 [Cariprazine, reference compound]	β-arrestin2 BRET EC50 [1]: Inactive
–	–	–	–	–	COc1cccc2c3c(oc12)CN(CCCCOc1ccc2c(c1)NC(=O)CC2)CC3 [I-A2, 7-(4-(8-methoxy-3,4-dihydrobenzofuro[2,3-c]pyridin-2(1H)-yl)butoxy)-3,4-dihydroquinolin-2(1H)-one]	Distance travelled in 45 minutes ([2]; MK801 0.2 mg/kg + compound 1 mg/kg i.p.): 8795.03 cm; Distance travelled in 45 minutes ([2]; MK801 0.2 mg/kg + compound 4 mg/kg i.p.): 6152.62 cm; Distance travelled in 45 minutes ([2]; MK801 0.2 mg/kg + compound 16 mg/kg i.p.): 3028.99 cm; affinity for 5-HT2A receptors (in words) (5-HT2A receptors): very weak affinity; pKi ± SEM (5-HT2A receptors; [8]): (5.95 ± 0.05); Ki (5-HT2A receptors; [8]): 1110 nM
0.64 nM	101%	55 nM	64.1%	–	CCOc1cccc2c3c(oc12)CN(CCc1ccc2ccc(=O)[nH]c2c1)CC3 [I-A27, 7-(2-(8-ethoxy-3,4-dihydrobenzofuro[2,3-c]pyridin-2(1H)-yl)ethyl)quinolin-2(1H)-one]	Emax (dopamine D2 receptors [6]): 57%; EC50 (dopamine D2 receptors [6]): 45.2 nM
–	18%	56.7 nM	96.7%	25.2%	CCOc1cccc2c3c(oc12)CN(CCNC(=O)C1CCCC1)CC3 [I-A33, N-(2-(8-ethoxy-3,4-dihydrobenzofuro[2,3-c]pyridin-2(1H)-yl)ethyl)cyclopentanecarboxamide]	–
–	17%	3.17 nM	102%	39.8%	CCOc1cccc2c3c(oc12)CN(CCNC(=O)c1ccccc1)CC3 [I-A35, N-(2-(8-ethoxy-3,4-dihydrobenzofuro[2,3-c]pyridin-2(1H)-yl)ethyl)benzamide]	–
–	12%	0.75 nM	100%	38.7%	CCOc1cccc2c3c(oc12)CN(CCNC(=O)c1cccs1)CC3 [I-A36, N-(2-(8-ethoxy-3,4-dihydrobenzofuro[2,3-c]pyridin-2(1H)-yl)ethyl)thiophene-2-carboxamide]	–
–	–	–	82.2%	20.6%	CCOc1cccc2c3c(oc12)CN(CCN1CCc2nn(C)c(C)c2C1=O)CC3 [I-A39, 5-(2-(8-ethoxy-3,4-dihydrobenzofuro[2,3-c]pyridin-2(1H)-yl)ethyl)-2,3-dimethyl-2,5,6,7-tetrahydro-4H-pyrazolo[4,3-c]pyridin-4-one]	–
–	–	–	101%	28.9%	CCOc1cccc2c3c(oc12)CN(CCN1CCCc2ccccc2C1=O)CC3 [I-A40, 2-(2-(8-ethoxy-3,4-dihydrobenzofuro[2,3-c]pyridin-2(1H)-yl)ethyl)-2,3,4,5-tetrahydro-1H-benzo[c]azepin-1-one]	–
0.78 nM	–	–	98.8%	14.3%	CCOc1cccc2c3c(oc12)CN(CCN1CCCc2c(ccn2C)C1=O)CC3 [I-A41, 5-(2-(8-ethoxy-3,4-dihydrobenzofuro[2,3-c]pyridin-2(1H)-yl)ethyl)-1-methyl-5,6,7,8-tetrahydropyrrolo[3,2-c]azepin-4(1H)-one]	–
0.42 nM	–	–	101%	21%	CCOc1cccc2c3c(oc12)CN(CCN1CCCc2c(cnn2C)C1=O)CC3 [I-A42, 5-(2-(8-ethoxy-3,4-dihydrobenzofuro[2,3-c]pyridin-2(1H)-yl)ethyl)-1-methyl-5,6,7,8-tetrahydropyrazolo[4,3-c]azepin-4(1H)-one]	–
0.015 nM	21%	48.8 nM	84.3%	–	CCOc1cccc2c3c(oc12)CN(CCCCn1ncc(=O)n(C)c1=O)CC3 [I-A43, 2-(4-(8-ethoxy-3,4-dihydrobenzofuro[2,3-c]pyridin-2(1H)-yl)butyl)-4-methyl-1,2,4-triazine-3,5(2H,4H)-dione]	–
–	–	–	81%	79%	COc1cccc2c1cc1n2CCN(CCNC(=O)C2CCOCC2)C1 [I-C8, N-(2-(9-methoxy-3,4-dihydropyrazino[1,2-a]indol-2(1H)-yl)ethyl)tetrahydro-2H-pyran-4-carboxamide]	Ki (dopamine D2 receptors [7]): 239 nM

Structure (SMILES)	Ki [3]	Emax (dopamine D2 receptors [4])	EC50 (dopamine D2 receptors [4])	Emax [5]	Emax [1]	further results
CCOc1cccc2c3c(oc12)CN(CCCCOc1ccc2ccc(=O)[nH]c2n1)CC3 [I-A29, 7-(4-(8-ethoxy-3,4-dihydrobenzofuro[2,3-c]pyridin-2(1H)-yl)butoxy)-1,8-naphthyridin-2(1H)-one]	–	47%	10.1 nM	90.3%	8.46%	Ki (dopamine D2 receptors [7]): 27.7 nM; affinity for 5-HT2A receptors (in words) (5-HT2A receptors): very weak affinity; Ki (5-HT2A receptors; [8]): 5520 nM; Emax (dopamine D2 receptors [6]): 40%; EC50 (dopamine D2 receptors [6]): 33.1 nM

Reference: patent publication US20250109139A1, “TRICYCLIC COMPOUND, AND PREPARATION METHOD THEREFOR AND USE THEREOF” (SHANGHAITECH UNIVERSITY, priority 2022, published 2025)
